The source made the active and inactive calls. How the calls were made is not given here.

This data set has as its system CCRIS mutagenicity, Ames/micronucleus/aberration tests. Description: CCRIS mutagenicity studies.
The mark [1] stands for this setting: Test System: AMES SALMONELLA TYPHIMURIUM, Strain/Indicator: TA98, Metabolic Activation: NONE, Method: PREINCUBATION
Setting [2] is: Test System: AMES SALMONELLA TYPHIMURIUM, Strain/Indicator: TA98, Metabolic Activation: NONE, Method: STANDARD PLATE.
The mark [3] stands for this setting: Test System: AMES SALMONELLA TYPHIMURIUM, Strain/Indicator: TA98, Metabolic Activation: RAT, LIVER, S-9, AROCLOR 1254, Method: STANDARD PLATE.
Where [4] appears, read: Test System: AMES SALMONELLA TYPHIMURIUM, Strain/Indicator: TA100, Metabolic Activation: NONE, Method: PREINCUBATION
The mark [5] stands for this setting: Test System: AMES SALMONELLA TYPHIMURIUM, Strain/Indicator: TA100, Metabolic Activation: NONE, Method: STANDARD PLATE.
[6] abbreviates: Test System: AMES SALMONELLA TYPHIMURIUM, Strain/Indicator: TA100, Metabolic Activation: RAT, LIVER, S-9, AROCLOR 1254, Method: STANDARD PLATE.
Setting [7] is: Test System: AMES SALMONELLA TYPHIMURIUM, Strain/Indicator: TA1535, Metabolic Activation: NONE, Method: PREINCUBATION
[8] abbreviates: Test System: AMES SALMONELLA TYPHIMURIUM, Strain/Indicator: TA1537, Metabolic Activation: NONE, Method: PREINCUBATION
Setting [9] is: Test System: AMES SALMONELLA TYPHIMURIUM, Strain/Indicator: TA1538, Metabolic Activation: NONE, Method: PREINCUBATION
The mark [10] stands for this setting: Test System: AMES SALMONELLA TYPHIMURIUM, Strain/Indicator: TA100, Metabolic Activation: NONE, Method: PREINCUBATION (11 HR GROWTH PERIOD FOR BACTERIA).
The mark [11] stands for this setting: Test System: AMES SALMONELLA TYPHIMURIUM, Strain/Indicator: TA100, Metabolic Activation: RAT, LIVER, S-9, PCB, Method: PREINCUBATION (11 HR GROWTH PERIOD FOR BACTERIA).
Setting [12] is: Test System: AMES SALMONELLA TYPHIMURIUM, Strain/Indicator: TA102, Metabolic Activation: NONE, Method: PREINCUBATION (5 OR 7 HR GROWTH PERIOD FOR BACTERIA).
The mark [13] stands for this setting: Test System: AMES SALMONELLA TYPHIMURIUM, Strain/Indicator: TA102, Metabolic Activation: RAT, LIVER, S-9, PCB, Method: PREINCUBATION (5 OR 7 HR GROWTH PERIOD FOR BACTERIA).

As for `CN1CCC[C@H]1c1cccnc1`, the mutagenic call was “active; positive” (End Point: IN VITRO MICRONUCLEUS, Test System: HUMAN GINGIVAL FIBROBLASTS, Metabolic Activation: NONE); “inactive; negative” (End Point: In vivo micronucleus, Test System: Bone marrow polychromatic erythrocytes, Species: Mouse, Strain/Sex: Swiss/Female, Route: Oral); “inactive; negative” (Test System: AMES SALMONELLA TYPHIMURIUM, Strain/Indicator: TA97, Metabolic Activation: NONE, Method: STANDARD PLATE); “inactive; negative” (Test System: AMES SALMONELLA TYPHIMURIUM, Strain/Indicator: TA97, Metabolic Activation: RAT, LIVER, S-9, AROCLOR 1254, Method: STANDARD PLATE); “inactive; negative” under setting [1]; “inactive; negative” under setting [2]. The mutagenic call by setting is: (Test System: AMES SALMONELLA TYPHIMURIUM, Strain/Indicator: TA98, Metabolic Activation: RAT, LIVER, S-9, AROCLOR 1254 (5%), Method: PREINCUBATION) “inactive; negative”; under setting [3], “inactive; negative”; under setting [4], “inactive; negative”; under setting [5], “inactive; negative”; (Test System: AMES SALMONELLA TYPHIMURIUM, Strain/Indicator: TA100, Metabolic Activation: RAT, LIVER, S-9, AROCLOR 1254 (5%), Method: PREINCUBATION) “inactive; negative”; under setting [6], “inactive; negative”. Also, the mutagenic call by setting is: under setting [7], “inactive; negative”; (Test System: AMES SALMONELLA TYPHIMURIUM, Strain/Indicator: TA1535, Metabolic Activation: RAT, LIVER, S-9, AROCLOR 1254 (5%), Method: PREINCUBATION) “inactive; negative”; under setting [8], “inactive; negative”; (Test System: AMES SALMONELLA TYPHIMURIUM, Strain/Indicator: TA1537, Metabolic Activation: RAT, LIVER, S-9, AROCLOR 1254 (5%), Method: PREINCUBATION) “inactive; negative”; under setting [9], “inactive; negative”; (Test System: AMES SALMONELLA TYPHIMURIUM, Strain/Indicator: TA1538, Metabolic Activation: RAT, LIVER, S-9, AROCLOR 1254 (5%), Method: PREINCUBATION) “inactive; negative”.
Turning to `CCCNNCCC`, the mutagenic call by setting is: under setting [10], “active; positive”; under setting [11], “inactive; negative”; under setting [12], “active; positive”; under setting [13], “active; positive”.
On to `CCCCCCC[N+](=O)[O-]`, for which the mutagenic call (Test System: UDS RAT HEPATOCYTES, Strain/Indicator: THY INCORP, Metabolic Activation: NONE) was “inactive; negative”.
Consider `Cc1ccc(N=Nc2c(O)ccc3ccccc23)cc1`, for which the mutagenic call is “inactive; negative” under setting [2]; “inactive; negative” (Test System: AMES SALMONELLA TYPHIMURIUM, Strain/Indicator: TA98, Metabolic Activation: RAT, LIVER, S-9, Method: STANDARD PLATE); “inactive; negative” under setting [5]; “inactive; negative” (Test System: AMES SALMONELLA TYPHIMURIUM, Strain/Indicator: TA100, Metabolic Activation: RAT, LIVER, S-9,, Method: STANDARD PLATE).
With `NC(CO)Cc1cnc[nH]1` (centres undefined), the mutagenic call was “inactive; negative. reevaluation of results: negative” (Test System: MOUSE LYMPHOMA, Strain/Indicator: L5178Y (TK+/TK-), Metabolic Activation: NONE, Method: SUSPENSION/PLATE) and “inactive; negative. reevaluation of results: negative” (Test System: MOUSE LYMPHOMA, Strain/Indicator: L5178Y (TK+/TK-), Metabolic Activation: RAT, LIVER, S-9, AROCLOR 1254, Method: SUSPENSION/PLATE).
Consider `COc1cccc([N+](=O)[O-])c1`, for which the mutagenic call is “inactive; negative” under setting [1]; “inactive; negative” (Test System: AMES SALMONELLA TYPHIMURIUM, Strain/Indicator: TA98, Metabolic Activation: RAT, LIVER, S-9, KANECHLOR 500, Method: PREINCUBATION); “inactive; negative” (Test System: AMES SALMONELLA TYPHIMURIUM, Strain/Indicator: TA98, Method: PREINCUBATION); “inactive; negative” under setting [4]; “inactive; negative” (Test System: AMES SALMONELLA TYPHIMURIUM, Strain/Indicator: TA100, Metabolic Activation: RAT, LIVER, S-9, KANECHLOR 500, Method: PREINCUBATION); “inactive; negative” (Test System: AMES SALMONELLA TYPHIMURIUM, Strain/Indicator: TA100, Method: PREINCUBATION). Also, the mutagenic call is, setting by setting: under setting [7], “inactive; negative”; (Test System: AMES SALMONELLA TYPHIMURIUM, Strain/Indicator: TA1535, Method: PREINCUBATION) “inactive; negative”; under setting [8], “inactive; negative”; (Test System: AMES SALMONELLA TYPHIMURIUM, Strain/Indicator: TA1537, Method: PREINCUBATION) “inactive; negative”; under setting [9], “inactive; negative”; (Test System: AMES SALMONELLA TYPHIMURIUM, Strain/Indicator: TA1538, Method: PREINCUBATION) “inactive; negative”.
Consider `CN(C)CCCNc1c2ccccc2nc2c(N(C)C)ccc([N+](=O)[O-])c12`, for which the mutagenic call is “active; positive” under setting [2] and “active; positive” under setting [5].
On to `CCCN(N)CCC`, for which the mutagenic call was “active; positive” under setting [10], “inactive; negative” under setting [11], “active; positive” under setting [12] and “inactive; negative” under setting [13].
On to `CC(C)OC(=O)C=Cc1ccc([N+](=O)[O-])o1`, for which the mutagenic call under setting [1] is “active; positive”.
As to `O=C1OC(O)C(C(Br)Br)=C1Br` (centres undefined), the mutagenic call under setting [2] was “active; positive”; the mutagenic call (Test System: AMES SALMONELLA TYPHIMURIUM, Strain/Indicator: TA98, Metabolic Activation: RAT LIVER S-9, AROCLOR 1254, Method: STANDARD PLATE) was “inactive; negative”; the mutagenic call under setting [5] is “active; positive”; the mutagenic call (Test System: AMES SALMONELLA TYPHIMURIUM, Strain/Indicator: TA100, Metabolic Activation: RAT LIVER S-9, AROCLOR 1254, Method: STANDARD PLATE) is “inactive; negative”.
Take `CC1(C)C[C@@H]2[C@@]34C[C@]3(C(C=O)=C[C@]2(O)C1)[C@@H](O)OC4=O`: the mutagenic call runs as follows: under setting [2], “active; positive”; under setting [5], “active; positive”; (Test System: AMES SALMONELLA TYPHIMURIUM, Strain/Indicator: TA2637, Metabolic Activation: NONE, Method: STANDARD PLATE) “active; positive”.
In the case of `O=C(/C=C/c1ccc(Oc2ccccc2)cc1)c1ccccc1`, the mutagenic call by setting is: under setting [2], “inactive; negative”; under setting [3], “inactive; negative”; under setting [5], “inactive; negative”; under setting [6], “inactive; negative”.

The values above are taken from PubChem BioAssay AID1259407 (Chemical Carcinogenesis Research Information System (CCRIS), 2018).
